In patent publication US8637496B2, “Compounds having a monogalactosyldiacylglycerol synthase inhibitory activity as herbicide or algaecide, herbicide and algaecide compositions” (Commissariat a l'Energie Atomique, priority 2007, dated 2014):
Where two headings read alike, the source gives them in different places.

Assays:
[1] = target: T1, spinach recombinant MGDG synthase (soMGD) (Spinacia oleracea, UniProt Q9SM44); assay: MGDG synthase enzymatic assay of recombinant spinach MGD protein in mixed micelles; type: biochemical; settings: recombinant enzyme expressed in E. coli, FIG. 2, read-out: IC50, inhibition of spinach recombinant MGDG synthase (soMGD) activity
T1 construct: The cDNA fragments corresponding to the mature form of spinach MGDG synthase, soMGD1; made in house; host or cells: Escherichia coli BL21-DE3, pET-3a (NdeI-BamHI)
T1 sequence (Q9SM44 99-522): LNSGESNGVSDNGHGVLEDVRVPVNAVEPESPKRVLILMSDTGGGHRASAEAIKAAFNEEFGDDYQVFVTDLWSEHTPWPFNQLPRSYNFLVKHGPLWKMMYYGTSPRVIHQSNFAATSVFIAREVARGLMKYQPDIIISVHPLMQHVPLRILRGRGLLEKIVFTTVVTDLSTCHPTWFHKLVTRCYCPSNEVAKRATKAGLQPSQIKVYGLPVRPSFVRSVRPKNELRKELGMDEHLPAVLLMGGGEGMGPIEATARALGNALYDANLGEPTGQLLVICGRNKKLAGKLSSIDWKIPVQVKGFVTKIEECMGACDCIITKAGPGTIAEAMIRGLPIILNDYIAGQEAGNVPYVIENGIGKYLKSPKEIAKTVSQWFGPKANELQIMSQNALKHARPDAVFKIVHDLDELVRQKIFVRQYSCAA
Excerpt: The cDNA fragments corresponding to the mature form of spinach MGDG synthase, soMGD1 [accession number CAB56218], and from the three isoforms that are present in Arabidopsis, i.e. atMGD1 [accession number BAB12042], atMGD2 [accession number T52269] and atMGD3 [accession number BAB12041] were inserted into the pET-3a expression vector from Novagen, as described by Miège C. et al., Eur. J. Biochem, 1999, 265, 990-1001 and Awai K. et al., Proc. Natl. Acad. Sci. U.S.A., 2001, 98, 10960-10965. All MGD sequences used in this study were inserted in NdeI-BamHI cloning site of the pET-3a vector. Induction of recombinant proteins was achieved following the pET expression system procedure. Isolated colonies of transfected Escherichia coli (BL21-DE3) were inoculated in LB medium (2.5 ml, 100 μg/ml carbenicillin) and grown at 37° C. When OD600 reached 0.5, the cell suspension was transferred to 15 ml of LB medium ([…] carbenicillin) and grown at 37° C. until OD600 reached 0.5. […]
The MGDG synthase enzymatic assay was achieved as described by Maréchal E. et al., J. Biol. Chem., 1995, 270, 5714-5722. […] J. Biochem. Physiol., 1959, 37, 911-917 and the radioactivity of the [^14C]-labelled MGDG ultimately produced, determined by liquid scintillation counting. […]

[2] = target: T2, MGDG synthase in isolated spinach chloroplast envelope membranes (Spinacia oleracea, UniProt Q9SM44); assay: MGDG synthase activity in envelope membrane fractions isolated from spinach chloroplasts; type: biochemical
T2 construct: envelope membranes purified from the lysate by sucrose centrifugation gradient; from tissue; host or cells: envelope membranes of chloroplasts from spinach leaves
T2 sequence (Q9SM44 99-522): T1 sequence (Q9SM44 99-522)
Outline: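 Envelope membranes purified from Percoll-isolated spinach chloroplasts by hypotonic lysis and sucrose gradient; MGDG synthase activity measured per published protocol.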

[3] = tested on: Chlamydomonas reinhardtii; assay: Chlamydomonas reinhardtii growth assay; type: cell-based; settings: day three (d=3)
Description: An axenic suspension of Chlamydomonas reinhardtii (10 μl) is introduced in a liquid TAP medium (Tris-Acetate-Phosphate medium, as described by Rochaix et al., (The Molecular Biology of Chloroplasts and Mitochondria in Chlamydomeonas; Advances in Photosynthesis, (1998) Vol. 7. Kluwer Academic Publishers, Dordrecht, The Netherlands) with or without compound according to the invention. The compounds to be tested have been solubilized in dimethylsulfoxide (DMSO) and supplied directly in the growth medium, at concentrations ranging from 0 to 200 μM. Final concentration of DMSO in medium was 10%. Chlamydomonas suspensions were then grown at 20° C., under continuous light (50 μE.m^−2.s^−1). Growth was assessed by counting the algae in a 40 μl aliquot using a Malassez cell and examining the cell vitality by standard microscopic methods.
Control herbicide is Triclosan.

[4] = Table 1, obtained in the same manner as FIG. 4, read-out: Inhibitory effect on MGDG synthesis in isolated spinach chloroplast envelope membranes

SMILES | IC50 [1] [µM] | IC50 [2, 4] [µM] | IC50 ([2]; spinach chloroplast envelope membranes, FIG. 4, read-out: IC50, MGDG synthase activity in envelope membranes that surround chloroplasts) [µM] | morphology of Chlamydomonas when incubated with compound (FIG. 6) [3]
C[C@@H](COC(=O)N1CCC(n2c(=O)[nH]c3ccccc32)CC1)N(Cc1ccccc1)Cc1ccccc1 [Compound 7, (S)-2-(dibenzylamino)propyl 4-(1,2-dihydro-2-oxobenzo[d]imidazol-3-yl)piperidine-1-carboxylate] | 45 | 45 | 10 | 
O=C(OC[C@H](Cc1ccccc1)N(Cc1ccccc1)Cc1ccccc1)N1CCC(n2c(=O)[nH]c3ccccc32)CC1 [Compound 8, (S)-2-(dibenzylamino)-3-phenylpropyl 4-(1,2-dihydro-2-oxobenzo[d]imidazol-3-yl)piperidine-1-carboxylate] | 100 | 10 |  | 
O=C(OCCN(Cc1ccccc1)Cc1ccccc1)N1CCC(n2c(=O)[nH]c3ccccc32)CC1 [Compound 11, 2-(dibenzylamino)ethyl 4-(1,2-dihydro-2-oxobenzo[d]imidazol-3-yl)piperidine-1-carboxylate] |  | 15 |  | fails to divide
O=C(OC1CN(C(c2ccccc2)c2ccccc2)C1)N1CCC(n2c(=O)[nH]c3ccccc32)CC1 [Compound 13, 1-benzhydrylazetidin-3-yl 4-(1,2-dihydro-2-oxobenzo[d]imidazol-3-yl)piperidine-1-carboxylate] |  | 100 to 500 |  | fails to divide
O=c1[nH]c2ccccc2n1C1CCN(C(=S)OCCOCc2ccccc2)CC1 [Compound 20, O-2-(benzyloxy)ethyl 4-(1,2-dihydro-2-oxobenzo[d]imidazol-3-yl)piperidine-1-carbothioate] |  | 100 to 500 |  | fails to divide
O=C(OCCN(Cc1ccccc1)Cc1cccc(OCc2ccccc2)c1)N1CCC(n2c(=O)[nH]c3ccccc32)CC1 [Compound 81, 2-(benzyl(3-(benzyloxy)benzyl)amino)ethyl 4-(2-oxo-2,3-dihydro-1H-benzo[d]imidazol-1-yl)piperidine-1-carboxylate] |  | 8 |  | 
O=C(OCCN(C/C=C/c1ccccc1)Cc1ccccc1)N1CCC(n2c(=O)[nH]c3ccccc32)CC1 [Compound 82, (E)-2-(benzyl(cinnamyl)amino)ethyl 4-(2-oxo-2,3-dihydro-1H-benzo[d]imidazol-1-yl)piperidine-1-carboxylate] |  | 50 |  | 
O=C(OCCCN(Cc1ccccc1)Cc1ccc(Cl)cc1)N1CCC(n2c(=O)[nH]c3ccccc32)CC1 [Compound 83, 3-(benzyl(4-chlorobenzyl)amino)propyl 4-(2-oxo-2,3-dihydro-1H-benzo[d]imidazol-1-yl)piperidine-1-carboxylate] |  | 12 |  | 
O=C(OCCCN(Cc1ccccc1)Cc1cccc(OCc2ccccc2)c1)N1CCC(n2c(=O)[nH]c3ccccc32)CC1 [Compound 84, 3-(benzyl(3-(benzyloxy)benzyl)amino)propyl 4-(2-oxo-2,3-dihydro-1H-benzo[d]imidazol-1-yl)piperidine-1-carboxylate] |  | 45 |  | 
CC(C)C[C@@H](COC(=O)N1CCC(n2c(=O)[nH]c3ccccc32)CC1)N(Cc1ccccc1)C(=O)OC(C)(C)C [Compound 85, (S)-2-(benzyl(tert-butoxycarbonyl)amino)-4-methylpentyl 4-(2-oxo-2,3-dihydro-1H-benzo[d]imidazol-1-yl)piperidine-1-carboxylate] |  | 10 |  | 
CC(C)(C)OC(=O)N(Cc1ccccc1)[C@H](COC(=O)N1CCC(n2c(=O)[nH]c3ccccc32)CC1)Cc1ccccc1 [Compound 86, (S)-2-(benzyl(tert-butoxycarbonyl)amino)-3-phenylpropyl 4-(2-oxo-2,3-dihydro-1H-benzo[d]imidazol-1-yl)piperidine-1-carboxylate] |  | 5 |  | 
CC(C)C[C@@H](COC(=O)N1CCC(n2c(=O)[nH]c3ccccc32)CC1)NCc1ccccc1 [Compound 87, (S)-2-(benzylamino)-4-methylpentyl 4-(2-oxo-2,3-dihydro-1H-benzo[d]imidazol-1-yl)piperidine-1-carboxylate] |  | 45 |  | 
O=C(OCC(Cc1ccccc1)NCc1ccccc1)N1CCC(n2c(=O)[nH]c3ccccc32)CC1 (centres unmarked) [Compound 88, 2-(benzylamino)-3-phenylpropyl 4-(2-oxo-2,3-dihydro-1H-benzo[d]imidazol-1-yl)piperidine-1-carboxylate] |  | 60 |  | 
CC(COC(=O)N1CCC(n2c(=O)[nH]c3ccccc32)CC1)N(CCCOCc1ccccc1)Cc1ccccc1 (centres unmarked) [Compound 89, 2-(benzyl(3-(benzyloxy)propyl)amino)propyl 4-(2-oxo-2,3-dihydro-1H-benzo[d]imidazol-1-yl)piperidine-1-carboxylate] |  | 40 |  | 
